In patent publication US8716478B2, “Boron-containing small molecules” (Anacor Pharmaceuticals, Inc., priority 2010, dated 2014):

Assays:
[1] = tested on: TNF-α in peripheral blood mononuclear cells (PBMCs); experiment: TNF-α inhibition in LPS-stimulated peripheral blood mononuclear cells; assay type: cell-based; conditions: PBMC; PBMCs, LPS 1 μg/mL for 24 h; read-out: Proinflammatory TNF-α IC50
Experimental: Peripheral blood mononuclear cells (PBMCs) pooled from 10-20 donors were obtained from a local blood bank, ficoll gradient purified, and stored frozen in liquid nitrogen. Cells were thawed and seeded into 96-well plates at 5×10^5 cells/well in RPMI 1640 with 10% heat-inactivated fetal calf serum (MediaTech, Inc, Hearndon, Va., USA), Test articles were evaluated at the indicated concentrations in 150 μL media containing <2% DMSO, final, with stimulant and PBMCs. Cells were stimulated with lipopolysaccharide (LPS, phenol-extract from E. coli, Sigma-Aldrich, St. Louis, Mo.) at 1 μg/mL. Stimulation was with LPS for 24 h to measure TNF-α. Cytokines in supernatants were analyzed with a FACSArray flow cytometer (BD Biosciences, San Jose, Calif., USA) using the BD Cytometric Bead Array (CBA) Flex Set (BD Biosciences). IC50 values were calculated using the four parameter logistic equation.

[2] = tested on: Schistosoma mansoni schistosomula; experiment: Schistosoma mansoni schistosomula phenotypic screen; conditions: First Set
From the text: Puerto Rican isolates of S. mansoni using Biomphalaria glabrata snails and golden hamsters as intermediate and definitive hosts, respectively, were maintained and handled in the University of California-San Francisco Sandler Center for Tropical Medicine. Patent B. glabrata snails (6-8 weeks after exposure to 5-10 infectious miracidia) were induced to shed infective larvae (cercariae) under light stimulus into the surrounding water. Cercariae were washed in rounds of ice-cold water and concentrated through and over sieves of varying pore sizes. They were then mechanically sheared (separation of heads from tails) as described in Colley D G, et al. Exp Parasitol 1974, 35:44-51, in ice-cold Incomplete Medium 169 (as described in Basch P F. J Parasitol 1981, 67:179-185, minus FBS and antibiotics) by passing 15 times through a double headed 22-gauge syringe needle connected to two 10 mL syringes. The resulting cercarial heads (schistosomula) were separated from their tails by swirling in a petri dish. Concentrated schistosomula were added to a sterile 1.5 mL centrifuge tube and allowed to settle over ice. Schistosomula were transferred to a sterile environment and washed 4 times in Incomplete Medium 169 prior to plating.
Two sets of screening were performed. In the first set, compounds were screened against schistosomula and observations were made at 24 hours, 2 days, 3 days, 4 days, and 6 days. In the second set, compounds were screened against schistosomula with observations at 24 hours, 2 days, 3 days, and 4 days and adult worms at 7 hours, 24 hours, 4 days, and 6 days.
Plates contain 200 schistosomula/well in […] complete Basch medium and were maintained at 37° C. in a 5% CO2 atmosphere. All compounds were tested in duplicate with at least two experimental replicates. Compounds and control compounds were added to the plates using the Biomek FXp using 96-well disposable tips. Final concentration of DMSO in each well was 0.5%.
A semi-quantitative and controlled nomenclature for phenotypes that can arise as a result of compound insult to both schistosomula and adults was utilized (Abdulla M H, et al., PLoS Negl Trop Dis 2009, 3:e478). Phenotypes were recorded by visual inspection and on a flexible time basis but at least at 24 h and 4 day time-points in the case of large scale screening. […] To help eliminate bias, two screen analysts scored phenotypes ‘blind’ both to knowledge of the contents of each screening plate and the phenotypes scored by his/her colleague. Upon completing their individual assessments, each analyst's ‘hit sheet’ was then compared to derive a ‘consensus hit sheet’. Discrepancies in analysts' hit sheets were re-evaluated under the microscope to eventually make a consensus hit call.
Hyper-coiled and coiled represent a verbal description of the visual phenotype as compared to the DMSO control. The + and ++ and +++ means more of the phenotype which preceded it. The − means less of the phenotype which preceded it. Results

[3] = tested on: TNF-α; experiment: In vivo TNF-α release in LPS treated mice; set-up: species or system Swiss Webster mice
Experimental: In vivo TNF-α release was measured in Swiss Webster mice, 10/group. Animals were dosed via oral gavage with drug 1% CMC suspension. Thirty minutes later LPS, 1.5 mg/kg was administered by intraperitoneal injection. Ninety minutes later animals were sacrificed, blood was collected by exsangination and serum prepared for analysis. TNF-α concentration was assessed by ELISA, non-drug treated animals had TNF-α levels 1000-3000 pg/mL. 6-(1-Hydroxy-1,3-dihydrobenzo[c][1,2]oxaborol-5-yloxy)-2-(2-isopropoxyethoxy)nicotinonitrile (D140) and 6-(1-hydroxy-1,3-dihydrobenzo[c][1,2]oxaborol-5-yloxy)-2-(4-oxopentyloxy)nicotinonitrile (D141) are disclosed in U.S. patent application Ser. No. 12/399,015, filed Mar. 5, 2009.

`N#Cc1cc(Cl)c(Oc2ccc3c(c2)COB3O)nc1OC1CCOCC1` [Compound D240, 5-Chloro-6-(1-hydroxy-1,3-dihydrobenzo[c][1,2]oxaborol-5-yloxy)-2-(tetrahydro-2H-pyran-4-yloxy)nicotinonitrile] was tested, and the IC50 [1] was 3.8 nM.

`N#Cc1cc(Cl)c(Oc2ccc3c(c2)COB3O)nc1OCCCC1(O)CC1` [Compound D233, 5-Chloro-6-(1-hydroxy-1,3-dihydrobenzo[c][1,2]oxaborol-5-yloxy)-2-(3-(1-hydroxycyclopropyl)propoxy)nicotinonitrile] gave an IC50 [1] of 13 nM.

For `CC(C)OC(=O)c1ccc(Oc2ccc3c(c2)COB3O)c(F)c1` [5-(2-Fluoro-4-isopropyloxycarbonylphenoxy)-1-hydroxy-2,1-benzoxaborole], the “schistosomula phenotype, day 6” value [2] was “O−, R”.

In the case of `N#Cc1ccc(Oc2ccc3c(c2)COB3O)c(OCC2CC2)c1` [3-(Cyclopropylmethoxy)-4-(1-hydroxy-1,3-dihydrobenzo[c][1,2]oxaborol-5-yloxy)benzonitrile], the “schistosomula phenotype, 24 h” value [2] is reported as “O+” and the “schistosomula phenotype, day 6” value [2] is reported as “partial D”.

For `CC(=O)NCc1ccc(Oc2ccc3c(c2)COB3O)cc1` [N-[4-(1-Hydroxy-1,3-dihydro-benzo[c][1,2]oxaborol-5-yloxy)-benzyl]-acetamide], the “schistosomula phenotype, day 4” value ([2]; day 4) was “D (dead)”.

`CC(C)OCCOc1nc(Oc2ccc3c(c2)C(C)OB3O)c(Cl)cc1C#N` (centres unmarked) [Compound D252, 5-Chloro-6-(1-hydroxy-3-methyl-1,3-dihydrobenzo[c][1,2]oxaborol-5-yloxy)-2-(2-isopropoxyethoxy)nicotinonitrile] was tested, and the IC50 [1] was 160 nM.

`N#Cc1ccc(Oc2ccc3c(c2)COB3O)nc1OCC(F)F` [2-(2,2-Difluoro-ethoxy)-6-(1-hydroxy-1,3-dihydro-benzo[c][1,2]oxaborol-5-yloxy)-nicotinonitrile] was tested, and the “schistosomula phenotype, 24 h” value [2] was “O+”.

`CC(C)OC(=O)c1ccc(Oc2ccc3c(c2)COB3O)nc1` [Isopropyl 6-(1-hydroxy-1,3-dihydrobenzo[c][1,2]oxaborol-5-yloxy)nicotinate] was tested, and the “schistosomula phenotype, 24 h” value [2] was “O+”.

`CC(C)(C)Nc1nc(Oc2ccc3c(c2)COB3O)ccc1C#N` [2-tert-butylamino-6-(1-hydroxy-1,3-dihydro-benzo[c][1,2]oxaborol-5-yloxy)-nicotinonitrile] was tested, and the “schistosomula phenotype, 24 h” value [2] was “O (overactive)”.

With `COCCN(C)c1nc(Oc2ccc3c(c2)COB3O)ccc1C#N` [6-(1-hydroxy-1,3-dihydro-benzo[c][1,2]oxaborol-5-yloxy)-2-[(2-methoxy-ethyl)-methyl-amino]-nicotinonitrile] the “schistosomula phenotype, 24 h” value [2] was “O+”.

`CCOC(=O)c1ccc(Oc2ccc3c(c2)COB3O)nc1OCC` [Ethyl 2-ethoxy-6-(1-hydroxy-1,3-dihydrobenzo[c][1,2]oxaborol-5-yloxy)nicotinate] was tested, and the “schistosomula phenotype, 24 h” value [2] was “O+”.

For `CCOc1nc(Oc2ccc3c(c2)COB3O)ccc1C#N` [2-Ethoxy-6-(1-hydroxy-1,3-dihydro-benzo[c][1,2]oxaborol-5-yloxy)-nicotinonitrile], the “schistosomula phenotype, 24 h” value [2] was “O++”.

For `CCOC(=O)c1cnc(Oc2ccc3c(c2)COB3O)c(Cl)c1` [Ethyl 5-chloro-6-(1-hydroxy-1,3-dihydrobenzo[c][1,2]oxaborol-5-yloxy)nicotinate], the “schistosomula phenotype, 24 h” value [2] was “O++”.

In the case of `CCOC(=O)c1ccc(Oc2ccc3c(c2)COB3O)c(Oc2cc(C#N)ccn2)c1` [5-[4-Ethoxycarbonyl-2-(4-cyanopyridin-2-yloxy)phenoxy]-1,3-dihydro-1-hydroxy-2,1-benzoxaborole], the “schistosomula phenotype, 24 h” value [2] is reported as “O+”.

`CCCOc1nc(Oc2ccc3c(c2)COB3O)ccc1C#N` [6-(1-Hydroxy-1,3-dihydro-benzo[c][1,2]oxaborol-5-yloxy)-2-propoxy-nicotinonitrile] was tested, and the “schistosomula phenotype, 24 h” value [2] was “O+”.

With `CC(C)Oc1nc(Oc2ccc3c(c2)COB3O)ccc1C#N` [6-(1-Hydroxy-1,3-dihydro-benzo[c][1,2]oxaborol-5-yloxy)-2-isopropoxy-nicotinonitrile] the “schistosomula phenotype, 24 h” value [2] was “O+”.

In the case of `N#Cc1ccc(Oc2ccc3c(c2)COB3O)nc1OCC(F)(F)F` [6-(1-Hydroxy-1,3-dihydro-benzo[c][1,2]oxaborol-5-yloxy)-2-(2,2,2-trifluoro-ethoxy)-nicotinonitrile], the “schistosomula phenotype, 24 h” value [2] is reported as “O (overactive)”.

`COCCNc1ccc(C#N)c(Oc2ccc3c(c2)COB3O)n1` [2-(1-Hydroxy-1,3-dihydro-benzo[c][1,2]oxaborol-5-yloxy)-6-(2-methoxy-ethylamino)-nicotinonitrile] was tested, and the “schistosomula phenotype, 24 h” value [2] was “O+”.

With `N#Cc1ccc(Oc2ccc3c(c2)COB3O)nc1NCCO` [6-(1-hydroxy-1,3-dihydro-benzo[c][1,2]oxaborol-5-yloxy)-2-(2-hydroxy-ethylamino)-nicotinonitrile] the “schistosomula phenotype, 24 h” value [2] was “O−” and the “schistosomula phenotype, day 6” value [2] was “O+ R”.

For `CCCOC(=O)c1ccc(Oc2ccc3c(c2)COB3O)nc1` [n-Propyl 6-(1-hydroxy-1,3-dihydrobenzo[c][1,2]oxaborol-5-yloxy)nicotinate], the “schistosomula phenotype, 24 h” value [2] was “O+”.

`CCC(=O)CCCOc1nc(Oc2ccc3c(c2)COB3O)c(Cl)cc1C#N` [Compound D234, 5-chloro-6-(1-hydroxy-1,3-dihydrobenzo[c][1,2]oxaborol-5-yloxy)-2-(4-oxohexyloxy)nicotinonitrile] showed an IC50 [1] of 2.1 nM.

For `CN(CCO)c1nc(Oc2ccc3c(c2)COB3O)ccc1C#N` [6-(1-Hydroxy-1,3-dihydro-benzo[c][1,2]oxaborol-5-yloxy)-2-[(2-hydroxy-ethyl)-methyl-amino]-nicotinonitrile], the “schistosomula phenotype, 24 h” value [2] was “O−”, the “schistosomula phenotype, day 3” value ([2]; day 3) was “O−” and the “schistosomula phenotype, day 6” value [2] was “R O”.

For `COc1ccc(C2CNC(=O)C2)cc1OC1CCCC1` (centres unmarked) [Rolipram], the “% Inhibition of TNFa Blood Levels in LPS Treated Mice” value (“% Inhibition of TNFa Blood Levels” for short) ([3]; Oral Dose 10 mg/kg) was 8.6% and the “% Inhibition of TNFa Blood Levels” value ([3]; Oral Dose 30 mg/kg) was 62.7%.

For `C[C@]12C=CC(=O)C=C1CC[C@@H]1[C@@H]2[C@@H](O)C[C@@]2(C)[C@H]1CC[C@]2(O)C(=O)CO` [Prednisolone], the “% Inhibition of TNFa Blood Levels” value ([3]; Oral Dose 0.01 mg/kg) was 16%, the “% Inhibition of TNFa Blood Levels” value ([3]; Oral Dose 0.1 mg/kg) was 54.3% and the “% Inhibition of TNFa Blood Levels” value ([3]; Oral Dose 3 mg/kg) was 81.6%. For the same compound, the “% Inhibition of TNFa Blood Levels” value ([3]; Oral Dose 10 mg/kg) was 84.5% and the “% Inhibition of TNFa Blood Levels” value ([3]; Oral Dose 100 mg/kg) was 85.9%.

`CC(=O)OCCOc1nc(Oc2ccc3c(c2)COB3O)ccc1C#N` [6-(1-Hydroxy-1,3-dihydro-benzo[c][1,2]oxaborol-5-yloxy)-2-(acetyloxyethoxy)-nicotinonitrile] was tested, and the “schistosomula phenotype, 24 h” value [2] was “O++”.

For `N#Cc1ccc(Oc2ccc3c(c2)COB3O)nc1N1CCCC1` [6-(1-Hydroxy-1,3-dihydro-benzo[c][1,2]oxaborol-5-yloxy)-2-pyrrolidin-1-yl-nicotinonitrile], the “schistosomula phenotype, 24 h” value [2] was “O+”.

With `COCCNc1nc(Oc2ccc3c(c2)COB3O)ccc1C#N` [6-(1-Hydroxy-1,3-dihydro-benzo[c][1,2]oxaborol-5-yloxy)-2-(2-methoxy-ethylamino)-nicotinonitrile] the “schistosomula phenotype, 24 h” value [2] was “O−”.

With `O=C(Nc1c(Cl)cncc1Cl)c1ccc(OC(F)F)c(OCC2CC2)c1` [Roflumilast] the “% Inhibition of TNFa Blood Levels” value ([3]; Oral Dose 0.3 mg/kg) was 0%, the “% Inhibition of TNFa Blood Levels” value ([3]; Oral Dose 1 mg/kg) was 24.9% and the “% Inhibition of TNFa Blood Levels” value ([3]; Oral Dose 3 mg/kg) was 52.5%. For the same compound, the “% Inhibition of TNFa Blood Levels” value ([3]; Oral Dose 10 mg/kg) was 71.5% and the “% Inhibition of TNFa Blood Levels” value ([3]; Oral Dose 30 mg/kg) was 73.5%.
